Experimental data published in PMC12444508, “Mechanistic Insights into the Anticancer Action of Novel 2‑Hydroxy-1,4-naphthoquinone Thiol Derivatives” (ACS Omega, 2025).

Tests used:
[1] = test system: active caspase 3/7 in SCC-9 cells; assay: Active caspase 3/7 staining; format: cell-based, human; settings: 2 × IC50, 24 h
Procedure: The following reagents were used in this assay: CellEvent Caspase-3/7 Green Ready Probes Reagent kit (R37111, Thermo Fisher, Waltham, Massachusetts, USA). SCC-9 cells were plated in 24-well microplates in the amount of 5 × 10^4 cells per well as previously described in ref . […] The duration of the treatment time was 24 h. After this period, the cells were taken to the Zeiss Axio Observer A1 fluorescence optical microscope (Zeiss, Oberkochen, Baden-Württemberg, Germany) to obtain caspase labeling images from five different fields. Data quantification was performed using the ImageJ program, and the values of reactive cells for caspase were compared in relation to the total number of cells per field, and the result was given as a percentage.

SCC-9 cells (OSCC cells) = assay: MTT cell viability assay, SCC-9; format: cell-based, human; settings: for IC50: Homo sapiens, SCC-9, 72 h, MTT, read-out: IC50 SCC-9 oral cancer; for SI (SCC-9): IC50 normal oral fibroblast / IC50 SCC-9
Procedure: (§1) Human SCC-4, SCC-9, and SCC-25 cells, derived from a human oral tongue SCC (squamous cell carcinoma), were obtained from ATCC (CRL-1624, CRL-1629, and CRL-1628, respectively) and maintained in 1:1 DMEM/F12 (Dulbecco’s modified Eagle’s medium and Ham’s F12 medium; Gibco (Thermo Fisher, Waltham, MA, USA)) supplemented with 10% (v/v) FBS (fetal bovine serum; Invitrogen, Thermo Fisher, Waltham, MA, USA) and 400 ng/mL hydrocortisone (Sigma-Aldrich Corporation, St. Louis, MO, USA). B16-F10 (melanoma; CRL-6475), HCT-116 (colorectal cancer; CCL-247), and HepG2 (liver cancer; HB-8065), in addition to primary normal human gingival fibroblasts obtained from ATCC (PCS-201-018), were maintained in DMEM supplemented with 10% (v/v) of FBS and were used in a maximum of six passages. Cells were grown in a humidified environment containing 5% CO2 at 37 °C. For all biological assays, compounds and shikonin were solubilized in 100% DMSO (all Sigma-Aldrich Corp.) to a final concentration of 10 mM and lapachol in ethanol. The carboplatin control was prepared in water (Fauldcarbo; Libbs Farmacêutica, São Paulo, SP, Brazil) and was used as a standard anticancer compound.
(§2) The viability of OSCC cell lines and primary human fibroblast cells was assessed using the MTT assay as in ref . Briefly, cells were grown in triplicate in 96-well plates (5 × 10^3 cells/well) until confluence. Then, the medium was removed, fresh medium was added, and the cells were returned to the incubator in the presence of different compounds. DMSO at the same concentration was used as a control for 100% cell viability. After 72 h, cells were incubated with 0.5 mg/mL of MTT reagent (3-(4,5-dimethyl-2-thiazolyl)-2,5-diphenyl-2-H-tetrazolium bromide) (Sigma-Aldrich Corporation, Louis, MO, USA) for 3.5 h. Then, the wells containing the cells were washed with PBS heated to 37 °C, the formazan crystals were dissolved in a solvent solution (DMSO/methanol 1:1 v/v), and the absorbance was read at 560 nm using an EPOCH microplate spectrophotometer (BioTek Instruments, Winooski, VT, USA) with the background absorbance at 670 nm subtracted. Control chemotherapeutics (carboplatin and shikonin) were used.
(§3) Data are presented as means ± SD. IC50 values for the MTT assays were obtained by nonlinear regression using the […] 8.4.3.0 program (Intuitive Software for Science, San Diego, CA, USA) from at least three independent experiments. A dose–response curve (inhibitor) vs response using the least-squares method was used to determine the IC50, SD, and R2 of the data. The selectivity index was calculated as SI = IC50 of the compound in normal oral fibroblast cells/IC50 of the same compound for each oral cancer cell line (SCC-4, SCC-9, and SCC-25) and averaged when indicated.

SCC-9 cells = assay: Cell migration (wound healing) assay; format: cell-based, human; settings: 1/8 of IC50, 72 h, SCC-9, mitomycin C
Procedure: To evaluate the inhibitory capacity of cell migration by substances 7a and 7e, 2 × 10^5 cells of the SCC-9 lineage were plated in a 35 mm Petri dish containing 2.0 mL of supplemented DMEN/F-12 medium and incubated at 37 °C with 5% CO2 until they reached at least ∼100% confluence. After this time, the metabolized medium was removed, and the cells were washed once with PBS and fresh medium (2.0 mL) treated with mitomycin C (MMC), 1-amino-9a-metoxi-7-metil-4,7,9,9a-tetra-hidro-3H-furo[3,4:6,7]-nafto[1,2-d]-imidazole-2(1H)-ona (Sigma-Aldrich Corporation, San Luis, Missouri, USA) at a concentration of 0.5 mg/mL, in a volume of 0.5 μL/mL, and returned to the incubator for 2 h. At the end of the time, scratch wounds were created on the cell monolayer by using a 200 μL capacity tip. […] The plate containing the cells was inserted into a chamber adapted to a Leica DMi1 inverted optical microscope (Leica Microsystems, Wetzlar, Germany) under controlled conditions of CO2 (5%) and temperature (37 °C). Phase contrast images in timelapse footage at 20× magnification for 72 h were captured every 2 min and 24 s. Measurements between the captured margins were collected using ImageJ analysis software (National Institute of Health, USA). […] The percentage of wound closure at each subsequent time is calculated in relation to the initial distance (time: 0 h).

SCC-9-LC3-GFP cells = assay: Autophagy assay (LC3-GFP puncta); format: cell-based, human; settings: 1 × IC50, 48 h
Procedure: To determine whether compounds 7a and 7e induce autophagy, SCC-9 cells were stably transduced with the plasmid expressing LC3-GFP as described. […] As a positive control, we used compound 8 (Supplementary Figure S1), an already described naphthoquinone-triazole-coumarin hybrid, able to induce autophagy at its IC50 concentration, 30 μM. After 48 h, the cells were visualized using a Zeiss Axio Observer A1 Fluorescence Optical Microscope (Zeiss, Oberkochen, Baden-Württemberg, Germany) to observe the formation of typical autophagy spots and photographed using a high-resolution monochromatic microscopy camera (Axiocam 503 mono, resolution: 1936 × 1460 pixels, pixel size: 4.54 μm × 4.54 μm) to maximize sensitivity and image quality.

[2] = test system: OSCC cell lines (SCC-4, SCC-9, and SCC-25); assay: Average selectivity index over three OSCC cell lines (MTT); format: cell-based, human; settings: average of SI for SCC-4, SCC-9 and SCC-25 vs normal oral fibroblasts
Procedure: as §1, §2, §3

HepG2 (liver cancer) = assay: MTT cytotoxicity/selectivity, HepG2; format: cell-based; settings: vs normal oral fibroblasts
Procedure: as §1
as §2, with “DMSO at the same concentration was used as a control for 100% cell viability. After 72 h, cells were incubated with 0.5 mg/mL of MTT reagent (3-(4,5-dimethyl-2-thiazolyl)-2,5-diphenyl-2-H-tetrazolium bromide) (Sigma-Aldrich Corporation, Louis, MO, USA) for 3.5 h.” left out, “Control chemotherapeutics (carboplatin and shikonin) were used.” left out
Data are presented as means ± SD. […] The selectivity index was calculated as SI = IC50 of the compound in normal oral fibroblast cells/IC50 of the same compound for each oral cancer cell line (SCC-4, SCC-9, and SCC-25) and averaged when indicated.

| SMILES | cells with positive staining for active caspases 3 and 7 [1] | IC50 (SCC-9 cells (OSCC cells)) | SI (SCC-9) (SCC-9 cells (OSCC cells)) | wound closure (SCC-9 cells) | cells with LC3-positive puncta (autophagosome formation) (SCC-9-LC3-GFP cells) | average SI [2] | selective index (SI) HepG2 hepatocellular carcinoma (HepG2 (liver cancer)) |
| --- | --- | --- | --- | --- | --- | --- | --- |
| CC1(C)OC2=C(C(=O)c3ccccc3C2=O)C(Sc2ccccc2)C1Sc1ccccc1 (stereo not shown) [7a, 2,2-Dimethyl-3,4-bis(phenylthio)-3,4-dihydro-2H-benzo[g]chromene-5,10-dione] | 71% | 26.3 µM | 2.2 | 28.4% | 20.5% | 3.2 | 2.1 |
| COc1ccc(SC2C3=C(OC(C)(C)C2Sc2ccc(OC)cc2)C(=O)c2ccccc2C3=O)cc1 (stereo not shown) [7e, 3,4-Bis((4-methoxyphenyl)thio)-2,2-dimethyl-3,4-dihydro-2H-benzo[g]chromene-5,10-dione] | 78.6% | 46.5 µM | 2.4 | 54.7% | 7.4% |  | 3.4 |
